target: T1, Sal-like protein 4 (Homo sapiens, UniProt Q9UJQ4); assay: TBD: TBD
T1 sequence (Q9UJQ4 whole entry): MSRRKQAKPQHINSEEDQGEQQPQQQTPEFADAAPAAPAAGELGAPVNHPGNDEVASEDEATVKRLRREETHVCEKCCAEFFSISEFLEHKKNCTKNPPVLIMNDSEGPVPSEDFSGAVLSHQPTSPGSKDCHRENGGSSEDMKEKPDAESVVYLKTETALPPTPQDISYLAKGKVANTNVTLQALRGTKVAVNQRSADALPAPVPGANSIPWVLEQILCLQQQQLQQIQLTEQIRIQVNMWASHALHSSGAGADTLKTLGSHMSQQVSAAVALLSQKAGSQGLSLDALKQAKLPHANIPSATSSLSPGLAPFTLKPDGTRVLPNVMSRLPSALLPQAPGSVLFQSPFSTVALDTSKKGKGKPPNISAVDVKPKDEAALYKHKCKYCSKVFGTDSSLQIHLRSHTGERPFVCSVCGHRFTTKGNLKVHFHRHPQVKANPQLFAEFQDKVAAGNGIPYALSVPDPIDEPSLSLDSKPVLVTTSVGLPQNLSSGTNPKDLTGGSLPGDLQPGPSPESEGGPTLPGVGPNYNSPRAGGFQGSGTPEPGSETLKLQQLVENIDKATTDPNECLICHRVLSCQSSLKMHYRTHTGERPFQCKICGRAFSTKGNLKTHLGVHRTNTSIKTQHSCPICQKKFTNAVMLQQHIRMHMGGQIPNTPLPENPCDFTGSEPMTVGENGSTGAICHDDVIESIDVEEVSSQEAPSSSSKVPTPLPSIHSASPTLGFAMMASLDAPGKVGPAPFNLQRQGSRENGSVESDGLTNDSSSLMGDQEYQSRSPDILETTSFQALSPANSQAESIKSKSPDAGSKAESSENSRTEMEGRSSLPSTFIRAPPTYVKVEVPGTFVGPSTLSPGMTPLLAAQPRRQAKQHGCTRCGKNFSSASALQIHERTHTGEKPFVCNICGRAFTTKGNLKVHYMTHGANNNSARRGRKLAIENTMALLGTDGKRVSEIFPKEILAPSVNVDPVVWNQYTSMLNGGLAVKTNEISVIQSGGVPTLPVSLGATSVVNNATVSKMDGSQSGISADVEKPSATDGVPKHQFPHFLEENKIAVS

Row | SMILES | IC50 [µM]
1 | Oc1ccc2ccccc2c1-c1nc2ccccn2c1NC1CCCCC1 | 2.77
2 | COC(=O)c1cccc(Nc2c(-c3c(O)ccc4ccccc34)nc3cnccn23)c1 | 0.623
3 | Oc1ccc2ccccc2c1-c1nc2cnccn2c1NCCN1CCOCC1 | 1.36
4 | Oc1ccc2ccccc2c1-c1nc2ccccn2c1NCc1ccccc1 | 1.51
5 | COc1ccc(CCNc2c(-c3c(O)ccc4ccccc34)nc3cnccn23)cc1OC | 2.49
6 | CC(C)(C)Nc1c(-c2c(O)ccc3ccccc23)nc2cnccn12 | 0.783
7 | Oc1ccc2ccccc2c1-c1nc2ccccn2c1NCCN1CCOCC1 | 2.23
8 | COc1ccc(Nc2c(-c3c(O)ccc4ccccc34)nc3cnccn23)cc1 | 0.619

Further compounds by falling IC50, results first:

Row | IC50 [µM] | SMILES
9 | 0.616 | Oc1ccc2ccccc2c1-c1nc2cnccn2c1NC1CCCCC1
10 | 0.594 | Oc1ccc2ccccc2c1-c1nc2cnccn2c1NCc1ccccc1
11 | 0.498 | N#Cc1ccc(Nc2c(-c3c(O)ccc4ccccc34)nc3cnccn23)cc1
12 | 0.434 | COCCNc1c(-c2c(O)ccc3ccccc23)nc2cnccn12
13 | 0.335 | Oc1ccc2ccccc2c1-c1nc2cnccn2c1NC1CC1
14 | 0.288 | COc1cccc(CNc2c(-c3c(O)ccc4ccccc34)nc3cnccn23)c1
15 | 0.162 | CC(C)(C)Nc1c(-c2c(O)ccc3ccccc23)nc2ccccn12
16 | 0.109 | Oc1ccc2ccccc2c1-c1nc2ccccn2c1NC1CC1

— ChEMBL document CHEMBL5729487, “Small molecule inhibition of transcription factor SALL4 and uses thereof” (2022)
